Data set [1] has as its system chloroquine-sensitive P. falciparum (NF54). Kind of data set: Antimalarial activity in vitro, [3H]hypoxanthine incorporation. In kind it is cell-based.
The subject of the next data set is P. berghei. As to conditions: P. berghei-infected mice; cited from earlier work.
The subject of data set [2] is Ehrlich ascites tumor (EAT) cells. To be noted: MTT assay; cited from earlier work. On the technique in general: Formazan colour is commonly taken as a measure of viable cells.
Data set [3] relates to P. berghei NY malaria parasite. Kind of data set: Antimalarial efficacies in vivo in mice. The text has this:
Neither overt toxicity nor behavioral modification was observed due to drug administration in any of these mouse experiments.

In a further data set the test system is malaria parasite. Kind of data set: Efficacy Study Blood Schizontocidal Activity. The data set is classed as in vivo. On the set-up: ED90: unit not given here.
A further data set deals with male CD-1 mice. The data set can be described thus: Acute toxicity study, single intraperitoneal injection. As to conditions: single ip, male CD-1 mice. The procedure: Each compound was dissolved in DMSO (Mallinkrodt Lot No. V18H15) to achieve a concentration of 200 mg/ml, and then 3 parts sesame oil (Spectrum Lot No. M10656) was added to make a working concentration of 50 mg/ml for dose administration. Stability, strength, and uniformity of the test articles in the dose formulations were not determined for this study.
Forty-two CD1 male mice purchased from Charles River Laboratories (Wilmington, Mass.) were used in the study. Mice were quarantined for 3 days prior to initiation of the study.
Mice were weighed and randomized into treatment groups on the day prior to the first dose administration. Due to limitations in the amount of available test materials, fewer mice in 1000 mg/kg groups were treated than specified in the protocol. The numbers of animals intended to be used and actually used with each compound at each dose level are shown in the table below; the only differences are in the high-dose groups.
Surviving animals were sacrificed on Day 8 and blood was collected for clinical pathology evaluations.
Mortality and morbidity were checked twice daily on weekdays and once daily on the weekend, see Table VI. Animals were weighed daily and prior to necropsy.

The next data set relates to 60 cell line panel. The data set is classed as cell-based. As to conditions: leukemia cell line RPM 1-8226, melanoma cell line SK-MEL-5, renal cancer cell line ACHN.
Setting [4] is: Table I, NF54 strain, read-out: IC50.

Where “and” joins values, the source holds several entries; their conditions need not be identical. Identical values can stand only once. Counter-ions that a name gives are not always drawn. Like-named read-outs stand apart in the source and are kept apart here.

As to `CC1CCC2C(C)C(CC(O)(COCC(=O)O)CC3OC4OC5(C)CCC6C(C)CCC(C3C)C46OO5)OC3OC4(C)CCC1C32OO4` (stereo not drawn) [Compound 21, bis-trioxane β-hydroxy O-acetic acid], the IC50 in data set [1] (setting [4]) was found to be 4.4 nM.
For `CC1CCC2C(C)C(CC(O)(COC(=O)c3ccc[n+]([O-])c3)CC3OC4OC5(C)CCC6C(C)CCC(C3C)C46OO5)OC3OC4(C)CCC1C32OO4` (stereo not drawn) [Compound 23, bis-trioxane vicinal diol nicotinate N-oxide], the IC50 entry in data set [1] is “sub-nanomolar”; in data set [1] (setting [4]), 0.4 nM.
For the compound `CC1CCC2C(C)C(CC(COC(=O)c3ccncc3)CC3OC4OC5(C)CCC6C(C)CCC(C3C)C46OO5)OC3OC4(C)CCC1C32OO4` (stereo not drawn) [Compound 8b, bis-trioxane primary alcohol isonicotinate], the IC50 in data set [1] (setting [4]) came to 1.7 nM.
As for `CC1CCC2C(C)C(CC(COC(=O)c3ccc[n+]([O-])c3)CC3OC4OC5(C)CCC6C(C)CCC(C3C)C46OO5)OC3OC4(C)CCC1C32OO4` (stereo not drawn) [Compound 15, bis-trioxane primary alcohol nicotinate N-oxide], the results for the IC50 entry in data set [1] and in data set [1] (setting [4]) were “sub-nanomolar” and 0.58 nM, respectively.
Take `CC1=CO[C@@H]2O[C@]3(C)CC[C@H]4[C@H](C)CC[C@@H]1[C@@]24OO3` [III]: in the data set with P. berghei, the activity in words entry was “inactive”.
On to `COP(=O)(OC)OCC(CC1OC2OC3(C)CCC4C(C)CCC(C1C)C24OO3)CC1OC2OC3(C)CCC4C(C)CCC(C1C)C24OO3` (stereo not drawn) [Compound 27, bis-trioxane primary alcohol dimethyl phosphoric acid triester], for which the IC50 entry in data set [1] is “sub-nanomolar”; in data set [1] (setting [4]), 0.48 nM.
Regarding `CC1CCC2C(C)C(CC3(CC4OC5OC6(C)CCC7C(C)CCC(C4C)C57OO6)COS(=O)(=O)O3)OC3OC4(C)CCC1C32OO4` (stereo not drawn) [Compound 42, bis-trioxane vicinal diol cyclic sulfate], the IC50 in data set [1] (setting [4]) came to 19 nM.
Same read-out and setting: the result for `CC1CCC2C(C)C(CC(O)(CC(=O)O)CC3OC4OC5(C)CCC6C(C)CCC(C3C)C46OO5)OC3OC4(C)CCC1C32OO4` (stereo not drawn) [Compound 35, bis-trioxane tertiary alcohol carboxylic acid] reads 2 nM.
Regarding `C[C@H]1[C@@H](O[C@H]2O[C@@H]3O[C@@]4(C)CC[C@H]5[C@H](C)CC[C@@H]([C@H]2C)[C@@]35OO4)O[C@@H]2O[C@@]3(C)CC[C@H]4[C@H](C)CC[C@@H]1[C@@]24OO3` [II-7, dihydroartemisinin condensation by-product], in the data set with P. berghei, the SD90 is 10 mg/kg. Moreover, the IC50 in data set [2] is 1400 nM.
`CC1CCC2C(C)C(CC(O)(CC3OC4OC5(C)CCC6C(C)CCC(C3C)C46OO5)CS(=O)(=O)N(C)C)OC3OC4(C)CCC1C32OO4` (stereo not drawn) [Compound 40, bis-trioxane tertiary alcohol N,N-dimethylsulfonamide]: the IC50 entry in data set [1] was “sub-nanomolar”; in data set [1] (setting [4]) it was 0.73 nM.
`CCOP(=O)(OCC)OCC(CC1OC2OC3(C)CCC4C(C)CCC(C1C)C24OO3)CC1OC2OC3(C)CCC4C(C)CCC(C1C)C24OO3` (stereo not drawn) [Compound 26, bis-trioxane primary alcohol diethyl phosphoric acid triester]: the IC50 result was “sub-nanomolar” in data set [1] and 0.74 nM in data set [1] (setting [4]).
In the same order, the values of `CC1CCC2C(C)C(CC(CC3OC4OC5(C)CCC6C(C)CCC(C3C)C46OO5)OC(=O)c3cc[n+]([O-])cc3)OC3OC4(C)CCC1C32OO4` (stereo not drawn) [Compound 24, bis-trioxane secondary alcohol isonicotinate N-oxide] are “sub-nanomolar” and 0.42 nM.
In the same order, the values of `CC1CCC2C(C)C(CC(CC3OC4OC5(C)CCC6C(C)CCC(C3C)C46OO5)OC(=O)c3ccc[n+]([O-])c3)OC3OC4(C)CCC1C32OO4` (stereo not drawn) [Compound 25, bis-trioxane secondary alcohol nicotinate N-oxide] are “sub-nanomolar” and 0.31 nM.
Consider `CCOC(=O)OCC(CC1OC2OC3(C)CCC4C(C)CCC(C1C)C24OO3)CC1OC2OC3(C)CCC4C(C)CCC(C1C)C24OO3` (stereo not drawn) [Compound 37, bis-trioxane primary alcohol ethyl carbonate], for which, in data set [1] (setting [4]), the IC50 was 2.8 nM.
On the same count and under the same terms, under `COS(=O)(=O)CC(O)(CC1OC2OC3(C)CCC4C(C)CCC(C1C)C24OO3)CC1OC2OC3(C)CCC4C(C)CCC(C1C)C24OO3` (stereo not drawn) [Compound 38, bis-trioxane tertiary alcohol methyl sulfonate] stands 200 nM.
Turning to `C[C@H]1[C@H](OC(=O)CCC(=O)[O-])O[C@@H]2O[C@@]3(C)CC[C@H]4[C@H](C)CC[C@@H]1[C@@]24OO3.[Na+]` [Sodium Artesunate, sodium artesunate, reference compound], the ED50 in data set [3] (route PO) was 10.0 mg/kg × 4 and 5.5 mg/kg × 4; in the data set on malaria parasite (Route: IV), 5 mg/kg; in the data set with malaria parasite (Route: PO), 6 mg/kg. Also, the ED90 in data set [3] (route PO) was 39.0 mg/kg × 4 and 70.0 mg/kg × 4; in the data set on malaria parasite (Route: IV) it was 40.0; in the data set with malaria parasite (Route: PO) it was 60.0. In data set [3] (route PO), the “% Parasite Supression at 10 mg/kg” value was 52.8% and 50.9%. Moreover, the Mortality entry with male CD-1 mice (125 mg/kg) is “No death”; in the data set with male CD-1 mice (250 mg/kg), 1/3 dead; with male CD-1 mice (500 mg/kg) it was 3/3 dead.
For the compound `CC1CCC2C(C)C(CC(O)(COC(=O)c3cc[n+]([O-])cc3)CC3OC4OC5(C)CCC6C(C)CCC(C3C)C46OO5)OC3OC4(C)CCC1C32OO4` (stereo not drawn) [Compound 18, bis-trioxane vicinal diol isonicotinate N-oxide], the IC50 entry is “sub-nanomolar” in data set [1] and 0.34 nM in data set [1] (setting [4]).
With `C[C@@H]1CC[C@H]2[C@@H](C)C(CC(=O)CC3OC4O[C@]5(C)CC[C@H]6[C@H](C)CC[C@@H]([C@H]3C)C46OO5)OC3O[C@]4(C)CCC1C32OO4` (stereo partly drawn) [Compound 7, bis-trioxane ketone], in data set [1], the IC50 entry is reported as “below one nM” and the “antimalarial potency in vitro relative to artemisinin” value was determined as 10 times. Also, the IC50 in data set [1] (setting [4]) worked out at 0.91 nM. Moreover, the “growth inhibition in words” value in the data set on 60 cell line panel was “less inhibitory”.
`CC1CCC2C(C)C(OC(=O)c3cc[n+]([O-])cc3)OC3OC4(C)CCC1C32OO4` (stereo not drawn) [Compound 33, α-dihydroartemisinin isonicotinate N-oxide]: the IC50 in data set [1] (setting [4]) was 0.81 nM.
With `C[C@@H]1CC[C@H]2[C@@H](C)C(CC3(CC4OC5O[C@]6(C)CC[C@H]7[C@H](C)CC[C@@H]([C@H]4C)C57OO6)CO3)OC3O[C@]4(C)CCC1C32OO4` (stereo partly drawn) [Compound 6, bis-trioxane epoxide], the IC50 in data set [1] (setting [4]) turned out to be 2.8 nM. Moreover, the “growth inhibition in words” value in the data set on 60 cell line panel is recorded as “less inhibitory”.
Take `CC1CCC2C(C)C(CC(O)CC3OC4OC5(C)CCC6C(C)CCC(C3C)C46OO5)OC3OC4(C)CCC1C32OO4` (stereo not drawn) [Compound 17, bis-trioxane secondary alcohol]: the figures for the IC50 entry in data set [1] and in data set [1] (setting [4]) were “below one nM” and 0.66 nM, respectively.
Take `COC(=O)OCC(CC1OC2OC3(C)CCC4C(C)CCC(C1C)C24OO3)CC1OC2OC3(C)CCC4C(C)CCC(C1C)C24OO3` (stereo not drawn) [Compound 36, bis-trioxane primary alcohol methyl carbonate]: the IC50 in data set [1] (setting [4]) was 1.7 nM.
Turning to `CC1CCC2C(C)C(OC(=O)CN(C)C)OC3OC4(C)CCC1C32OO4` (stereo not drawn) [Compound 32, α-dihydroartemisinin dimethylglycinate], the IC50 in data set [1] (setting [4]) was found to be 1.1 nM.
In the case of `C[C@@H]1[C@H](OCc2ccc(C(=O)O)cc2)O[C@@H]2O[C@@]3(C)CC[C@@H]4[C@@H](C)CC[C@@H]1[C@]24OO3` [Artelinic Acid, artelinic acid, reference compound], in data set [3] (route IV), the ED50 was 11.0 mg/kg × 4 and 5.6 mg/kg × 4; the ED90 was 25.0 mg/kg × 4 and 43.0 mg/kg × 4; the “% Parasite Supression at 10 mg/kg” value was 54.7% and 42.4%.
On to `CC1CCC2C(C)C(CC3(CC4OC5OC6(C)CCC7C(C)CCC(C4C)C57OO6)COC(=O)O3)OC3OC4(C)CCC1C32OO4` (stereo not drawn) [Compound 41, bis-trioxane vicinal diol cyclic carbonate], for which the half-maximal inhibitory concentration (IC50) entry in data set [1] is “sub-nanomolar”; in data set [1] (setting [4]) it was 0.59 nM.

What is called IC50 is the midpoint of a concentration-inhibition curve.
